Measurements taken from patent US8404677B2, “Kinase inhibitors” (Genosco, priority 2009, dated 2013).
Counter-ions that a name gives are not always drawn. Blank lines part the entries; values can stand above or below the molecule they belong to.

What was measured:
SYK = SYK (Homo sapiens, UniProt P43405); test: Inhibition of enzymatic kinase activity (LANCE Ulight); format: biochemical; design: Purified full-length human SYK, ZAP70, PIM1, PYK2; purchased Carna Biosciences; settings: for IC50: read-out: SYK molar inhibition (IC50)
Protocol: (§1) Inhibition of Enzymatic SYK, ZAP70, PYK2, FAK, PIM1, RET, FLT3, JAK2 and LRRK2 Kinase Activity
(§2) Compounds of the invention were initially diluted to 10 mM in 100% DMSO (CALBIOCHEM™) for storage and made into kinase buffer solution to create a compound concentration ranging from 1 uM and 10 uM. Serial dilutions of compounds of the invention were dispensed into a 96-well plate (GREINER BIOSCIENCES™) at 6 μL each. Purified full-length human SYK, ZAP70, PIM1, PYK2 and truncated human FAK, RET, FLT3, JAK2, and LRRK2 (CARNA BIOSCIENCES™) were diluted in kinase buffer and added to the compound solutions and pre-incubated for 30 minutes at room temperature (1 hour for PYK2). […] The reaction mixture was incubated for 1 hour (2 hours for PYK2). Following the incubation, the stop solution made with EDTA, water, and Lance detection buffer ([…]™) was added (12 μL each) to stop phosphorylation.

PYK2 = PYK2 (Homo sapiens, UniProt Q14289); test: as above; format: biochemical; design: Purified full-length human SYK, ZAP70, PIM1, PYK2; purchased Carna Biosciences; settings: for IC50: read-out: PYK2 molar inhibition (IC50)
Protocol: as §1, §2

human PIM1 = biological target: T1, human PIM1 (Homo sapiens, UniProt P11309); test: as above; format: biochemical; settings: at 1 μM concentration
T1 construct: Purified full-length human SYK, ZAP70, PIM1, PYK2; purchased Carna Biosciences
Protocol: as §1
as §2, with “phosphorylation. […] Substrate phosphorylation was a function of the 665 nm emission measured following the addition of the detection solution and 50 minutes of incubation.” for “phosphorylation.”

truncated human FAK = biological target: T2, truncated human FAK (Homo sapiens, UniProt Q05397); test: as above; format: biochemical; settings: for IC50: read-out: FAK molar inhibition (IC50)
T2 construct: truncated human FAK, RET, FLT3, JAK2, and LRRK2 (CARNA BIOSCIENCES™); purchased Carna Biosciences
Protocol: as §1, §2

human ZAP70 = biological target: T3, human ZAP70 (Homo sapiens, UniProt P43403); test: as above; format: biochemical; settings: at 1 μM concentration
T3 construct: Purified full-length human SYK, ZAP70, PIM1, PYK2; purchased Carna Biosciences
T3 sequence (P43403 1-619): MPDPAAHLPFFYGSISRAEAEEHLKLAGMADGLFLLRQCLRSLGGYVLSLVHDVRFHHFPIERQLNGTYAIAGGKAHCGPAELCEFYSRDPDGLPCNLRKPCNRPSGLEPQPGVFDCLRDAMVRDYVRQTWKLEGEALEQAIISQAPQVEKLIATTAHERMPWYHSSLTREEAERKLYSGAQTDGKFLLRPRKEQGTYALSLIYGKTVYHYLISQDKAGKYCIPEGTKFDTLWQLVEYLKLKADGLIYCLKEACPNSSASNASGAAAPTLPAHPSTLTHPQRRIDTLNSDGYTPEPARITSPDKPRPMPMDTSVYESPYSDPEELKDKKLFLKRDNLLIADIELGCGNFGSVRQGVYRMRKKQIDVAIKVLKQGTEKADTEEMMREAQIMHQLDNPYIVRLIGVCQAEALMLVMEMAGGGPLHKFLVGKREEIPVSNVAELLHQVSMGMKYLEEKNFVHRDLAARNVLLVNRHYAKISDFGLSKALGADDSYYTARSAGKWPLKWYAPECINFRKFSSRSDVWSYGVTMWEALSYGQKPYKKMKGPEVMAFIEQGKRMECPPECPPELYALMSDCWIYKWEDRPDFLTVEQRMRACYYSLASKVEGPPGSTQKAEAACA
Protocol: as §1, §2

[1] = system: TNF-α release in THP-1 cells, IgG stimulation; test: SYK dependent TNF-α release assay (IgG stimulation); format: cell-based, human; settings: for percentage inhibition of TNF-α release compared with R406: IgG stimulated release, 0.3 μM
Protocol: Compounds of the invention were tested for their TNF-α release effect on THP-1 cells. For SYK dependent TNF-α release assay (i.e., via IgG stimulation), THP-1 cells derived from human monocytic cells were obtained from the American Type Culture Collection (ATCC, Manassas, Va.). This cell line was maintained with an Roswell Park Memorial Institute (RPMI) medium (GIBCO™) containing 10 fetal bovine serum (FBS; GIBCO™) and 0.05 mM 2-mercaptoethanol. The THP-1 cells were seeded at 1×10^5 cells/100 μL/well into human IgG ([…], INVITROGEN™)-coated 96 well culture plate, and serially diluted compound was then added. After an 18-hour incubation period at 37° C., supernatants were collected for the determination of the TNF-α level by enzyme-linked immunosorbent assay (ELISA), and the remaining cells were subjected to an MTT (yellow tetrazolium salt) assay to determine the cytotoxic effects of compound.

truncated human RET = biological target: T4, truncated human RET (Homo sapiens, UniProt P07949); test: Inhibition of enzymatic kinase activity (LANCE Ulight); format: biochemical
T4 construct: truncated human FAK, RET, FLT3, JAK2, and LRRK2 (CARNA BIOSCIENCES™); purchased Carna Biosciences
T4 sequence (P07949 658-1114 limits assumed): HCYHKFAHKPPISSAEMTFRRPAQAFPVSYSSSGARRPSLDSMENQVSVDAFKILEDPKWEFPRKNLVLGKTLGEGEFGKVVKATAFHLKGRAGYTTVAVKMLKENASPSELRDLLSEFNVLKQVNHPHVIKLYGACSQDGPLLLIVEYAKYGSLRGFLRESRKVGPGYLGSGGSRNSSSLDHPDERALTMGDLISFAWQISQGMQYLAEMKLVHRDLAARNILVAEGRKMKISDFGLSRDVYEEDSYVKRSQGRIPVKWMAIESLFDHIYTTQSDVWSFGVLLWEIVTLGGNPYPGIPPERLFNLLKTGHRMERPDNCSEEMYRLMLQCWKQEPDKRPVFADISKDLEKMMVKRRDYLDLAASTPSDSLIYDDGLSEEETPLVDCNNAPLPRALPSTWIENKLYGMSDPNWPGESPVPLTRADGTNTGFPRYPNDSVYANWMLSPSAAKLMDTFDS
Protocol: as §1, §2

truncated human FLT3 = biological target: T5, truncated human FLT3 (Homo sapiens, UniProt P36888); test: as above; format: biochemical
T5 construct: truncated human FAK, RET, FLT3, JAK2, and LRRK2 (CARNA BIOSCIENCES™); purchased Carna Biosciences
T5 sequence (P36888 564-993 limits assumed): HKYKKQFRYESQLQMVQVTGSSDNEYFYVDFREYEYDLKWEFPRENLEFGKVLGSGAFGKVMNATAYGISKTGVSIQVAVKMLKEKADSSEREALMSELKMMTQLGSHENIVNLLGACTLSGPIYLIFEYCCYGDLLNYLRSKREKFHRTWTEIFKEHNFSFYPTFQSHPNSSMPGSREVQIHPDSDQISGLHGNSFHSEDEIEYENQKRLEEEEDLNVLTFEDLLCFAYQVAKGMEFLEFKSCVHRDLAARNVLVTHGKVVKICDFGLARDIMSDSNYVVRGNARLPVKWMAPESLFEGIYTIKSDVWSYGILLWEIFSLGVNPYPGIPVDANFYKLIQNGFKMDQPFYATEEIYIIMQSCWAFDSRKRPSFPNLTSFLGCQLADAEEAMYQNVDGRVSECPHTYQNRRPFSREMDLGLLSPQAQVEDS
Protocol: as §1, §2

truncated human JAK2 = biological target: T6, truncated human JAK2 (Homo sapiens, UniProt O60674); test: as above; format: biochemical
T6 construct: truncated human FAK, RET, FLT3, JAK2, and LRRK2 (CARNA BIOSCIENCES™); purchased Carna Biosciences
Protocol: as §1, §2

Sequence of PYK2 (Q14289 whole entry): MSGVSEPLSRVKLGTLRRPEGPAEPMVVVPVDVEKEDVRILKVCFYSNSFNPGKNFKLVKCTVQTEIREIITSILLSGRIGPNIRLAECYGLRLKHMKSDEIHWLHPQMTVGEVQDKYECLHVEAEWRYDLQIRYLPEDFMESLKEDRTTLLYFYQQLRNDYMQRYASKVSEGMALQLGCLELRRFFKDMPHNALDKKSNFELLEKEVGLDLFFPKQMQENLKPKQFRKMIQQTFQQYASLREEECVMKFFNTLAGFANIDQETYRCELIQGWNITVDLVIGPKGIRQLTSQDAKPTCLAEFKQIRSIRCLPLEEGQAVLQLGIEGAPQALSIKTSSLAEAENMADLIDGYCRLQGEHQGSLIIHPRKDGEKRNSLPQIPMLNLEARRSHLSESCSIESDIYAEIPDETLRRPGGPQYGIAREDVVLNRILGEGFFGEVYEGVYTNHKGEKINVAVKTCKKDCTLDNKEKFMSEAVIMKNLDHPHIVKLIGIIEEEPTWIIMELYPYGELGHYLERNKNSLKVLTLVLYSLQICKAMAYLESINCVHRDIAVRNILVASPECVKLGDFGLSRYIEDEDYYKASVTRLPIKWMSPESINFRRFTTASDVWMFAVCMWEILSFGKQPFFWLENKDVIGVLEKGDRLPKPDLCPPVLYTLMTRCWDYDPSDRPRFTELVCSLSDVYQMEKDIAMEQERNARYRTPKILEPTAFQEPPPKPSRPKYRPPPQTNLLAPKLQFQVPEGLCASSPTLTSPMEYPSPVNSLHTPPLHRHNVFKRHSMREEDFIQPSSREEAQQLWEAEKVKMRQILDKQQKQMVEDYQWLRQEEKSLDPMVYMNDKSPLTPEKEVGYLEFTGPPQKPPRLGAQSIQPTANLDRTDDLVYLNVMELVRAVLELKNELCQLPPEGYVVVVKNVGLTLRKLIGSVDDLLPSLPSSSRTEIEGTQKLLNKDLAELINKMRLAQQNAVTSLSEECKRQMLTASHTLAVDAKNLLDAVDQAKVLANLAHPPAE
T2 sequence (Q05397 376-1052 limits assumed): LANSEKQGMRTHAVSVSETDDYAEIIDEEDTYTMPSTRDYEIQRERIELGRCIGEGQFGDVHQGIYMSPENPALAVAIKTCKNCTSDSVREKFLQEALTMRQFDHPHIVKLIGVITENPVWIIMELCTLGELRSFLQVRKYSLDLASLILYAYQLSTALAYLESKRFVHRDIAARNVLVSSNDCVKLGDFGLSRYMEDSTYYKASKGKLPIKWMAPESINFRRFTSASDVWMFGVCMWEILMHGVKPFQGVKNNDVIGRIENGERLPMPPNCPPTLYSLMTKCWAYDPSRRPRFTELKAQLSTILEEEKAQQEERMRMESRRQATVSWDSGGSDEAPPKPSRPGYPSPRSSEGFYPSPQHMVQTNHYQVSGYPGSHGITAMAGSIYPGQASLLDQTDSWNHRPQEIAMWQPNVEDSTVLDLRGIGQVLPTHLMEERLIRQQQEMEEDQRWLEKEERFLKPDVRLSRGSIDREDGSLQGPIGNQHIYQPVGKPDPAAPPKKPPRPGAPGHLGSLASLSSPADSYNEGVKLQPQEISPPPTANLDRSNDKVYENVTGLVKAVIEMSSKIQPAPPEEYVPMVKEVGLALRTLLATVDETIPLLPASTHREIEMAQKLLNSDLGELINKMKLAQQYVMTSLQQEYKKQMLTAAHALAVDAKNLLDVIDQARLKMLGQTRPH
T6 sequence (O60674 826-1132 limits assumed): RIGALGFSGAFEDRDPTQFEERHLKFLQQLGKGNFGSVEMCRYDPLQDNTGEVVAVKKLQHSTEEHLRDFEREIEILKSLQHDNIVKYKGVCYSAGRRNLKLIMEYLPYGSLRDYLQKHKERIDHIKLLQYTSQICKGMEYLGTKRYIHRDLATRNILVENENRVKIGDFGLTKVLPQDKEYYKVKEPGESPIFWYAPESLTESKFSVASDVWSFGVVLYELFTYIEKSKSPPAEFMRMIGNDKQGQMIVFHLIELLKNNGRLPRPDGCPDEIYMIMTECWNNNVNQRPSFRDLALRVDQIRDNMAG
T1 sequence (P11309 whole entry): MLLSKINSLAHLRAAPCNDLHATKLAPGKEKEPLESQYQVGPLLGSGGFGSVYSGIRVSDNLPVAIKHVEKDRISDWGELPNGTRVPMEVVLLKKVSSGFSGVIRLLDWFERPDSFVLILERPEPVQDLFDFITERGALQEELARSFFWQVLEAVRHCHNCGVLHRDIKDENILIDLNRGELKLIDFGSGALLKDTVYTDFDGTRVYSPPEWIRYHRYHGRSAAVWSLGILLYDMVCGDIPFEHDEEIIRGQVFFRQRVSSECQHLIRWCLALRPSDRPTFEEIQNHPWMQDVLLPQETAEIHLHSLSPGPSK

Molecule: (2-((1R,2S)-2-aminocyclohexylamino)-4-(3-(trifluoromethyl)phenylamino)pyrido[4,3-d]pyrimidin-5(6H)-one with (2-((1S,2R)-2-aminocyclohexylamino)-4-(3-(trifluoromethyl)phenylamino)pyrido[4,3-d]pyrimidin-5(6H)-one [Compound 101]
- SYK percentage inhibition (SYK; at 1 μM concentration): 90%
- PYK2 percentage inhibition (PYK2; at 1 μM concentration): 85%
- PIM1 percentage inhibition (human PIM1): 61%
- FAK percentage inhibition (truncated human FAK; at 1 μM concentration): 77%
- ZAP70 percentage inhibition (human ZAP70): 45%

Molecule: COc1cc(Nc2nc(N3CCC(O)(CO)CC3)nc3cc[nH]c(=O)c23)cc(OC)c1 [Compound 2, 4-(3,5-dimethoxyphenylamino)-2-(4-hydroxy-4-(hydroxymethyl)piperidin-1-yl)pyrido[4,3d]pyrimidin-5(6H)-one]
- IC50 (truncated human RET): 363 nM
- IC50 (truncated human FLT3): 368 nM
- IC50 (truncated human JAK2): 73.8 nM

Molecule: O=c1[nH]ccc2nc(N[C@H]3CCNC3)nc(Nc3ccc(Oc4ccccc4)cc3)c12 [Compound 125, (S)-4-(phenoxyphenylamino)-2-(pyrrolidin-3-ylamino)pyrido[4,3-d]pyrimidin-5(6H)-one hydrochloride]
- IC50 (truncated human RET): 3.4 nM
- IC50 (truncated human FLT3): 0.6 nM
- IC50 (truncated human JAK2): 24.9 nM

Molecule: COc1cc(Nc2ncc(F)c(Nc3ccc4c(n3)NC(=O)C(C)(C)O4)n2)cc(OC)c1OC [Compound R406, reference compound]
- Inhibition of TNF-α Release (percentage inhibition) ([1]; IgG stimulation, At 0.3 μM, THP-1): 49.9%
- Inhibition of TNF-α Release (percentage inhibition) ([1]; IgG stimulation, At 1 μM, THP-1): 87.4%

Molecule: COc1cc(Nc2nc(N3CCC(O)CC3)nc3cc[nH]c(=O)c23)cc(OC)c1 [Compound 1, 4-(3,5-dimethoxyphenylamino)-2-(4-hydroxypiperidin-1-yl)pyrido[4,3,-d]pyrimidin-6(6H)-one]
- IC50 (truncated human RET): 200 nM
- IC50 (truncated human FLT3): 242 nM
- IC50 (truncated human JAK2): 59.4 nM

Molecule: N[C@@H]1CCCC[C@H]1Nc1nc(Nc2cc(C(F)(F)F)cc(C(F)(F)F)c2)c2c(=O)[nH]ccc2n1 [Compound 100, 2-((1R,2R)-2-aminocyclohexylamino)-4-(3,5-bis(trifluoromethyl)phenylamino)pyrido[4,3-d]pyrimidin-5(6H)-one]
- inhibition at 1 µM (SYK; at 1 μM concentration, read-out: SYK percentage inhibition): 37.7%
- inhibition at 1 µM (PYK2; at 1 μM concentration, read-out: PYK2 percentage inhibition): 88.4%
- inhibition at 1 µM (truncated human FAK; at 1 μM concentration, read-out: FAK percentage inhibition): 21.9%
- inhibition at 1 µM (human ZAP70; read-out: ZAP70 percentage inhibition): 9%

Second part, led by results:

- IC50 (SYK): 2.7 nM
- IC50 (PYK2): 84.3 nM
- IC50 (truncated human FAK): 337 nM
Molecule: COc1ccc(Nc2nc(N3CCC(O)(CO)CC3)nc3cc[nH]c(=O)c23)cc1C(F)(F)F [Compound 152, 2-(4-hydroxy-4-(hydroxymethyl)piperidin-1-yl)-4-(4-methoxy-3-(trifluoromethyl)phenylamino)pyrido[4,3-d]pyrimidin-5(6H)-one]
- inhibition at 0.3 µM ([1]; Homo sapiens, IgG stimulation, At 0.3 μM, THP-1, read-out: Inhibition of TNF-α Release (percentage inhibition)): 80.5%
- inhibition at 1 µM ([1]; Homo sapiens, IgG stimulation, At 1 μM, THP-1, read-out: Inhibition of TNF-α Release (percentage inhibition)): 82.9%
- percentage inhibition of TNF-α release compared with R406 [1]: higher percentage inhibition

- IC50 (SYK): 8.2 nM
- IC50 (PYK2): 90.2 nM
- IC50 (truncated human FAK): 217 nM
Molecule: COc1ccc(Nc2nc(N3CCC(CO)CC3)nc3cc[nH]c(=O)c23)cc1C(F)(F)F [Compound 151, 2-(4-(hydroxymethyl)piperidin-1-yl)-4-(4-methoxy-3-(trifluoromethyl)phenylamino)pyrido[4,3d]pyrimidin-5(6H)-one]
- percentage inhibition of TNF-α release compared with R406 [1]: greater than those exhibited by R406

- IC50 (truncated human RET): 115 nM
- IC50 (truncated human FLT3): 106 nM
- IC50 (truncated human JAK2): 65.3 nM
Molecule: COc1ccc(Nc2nc(N3CCC(O)CC3)nc3cc[nH]c(=O)c23)cc1C(F)(F)F [Compound 150, 2-(4-hydroxypiperidin-1-yl)-4-(4-methoxy-3-(trifluoromethyl)phenylamino)pyrido[4,3d]pyrimidin-5(6H)-one]

- IC50 (truncated human RET): 32.7 nM
- IC50 (truncated human FLT3): 151 nM
- IC50 (truncated human JAK2): 151 nM
Molecule: COc1cc(Nc2nc(N3CCC(O)CC3)nc3cc[nH]c(=O)c23)cc(OC)c1OC [Compound 149, 2-(4-hydroxypiperidin-1-yl)-4-(3,4,5-triemethoxyphenylamino)pyrido[4,3d]pyrimidin-5(6H)-one]

- IC50 (truncated human RET): 7.3 nM
- IC50 (truncated human JAK2): 3.7 nM
Molecule: O=c1[nH]ccc2nc(N3CCC(O)CC3)nc(Nc3ccc(N4CCOCC4)cc3)c12 [Compound 134, 2-(4-hydroxypiperidin-1-yl)-4-(4-morpholinophenylamino)pyrido[4,3-d]pyrimidin-5(6H)-one]
